# Experimental data reported in paper PMC6915728 (Nature Communications, 2019).
# Like-named read-outs stand apart in the source and are kept apart here.
# Legend:
# [1] = test system: E. coli K12 BW25113 carrying the pooled ASKA overexpression plasmid library (~4400 ORFs); assay: Chemical-genetic profiling: pooled competitive growth of the ASKA gene-overexpression library with and without AMP, deep sequencing readout; assay type: cell-based, Escherichia coli; conditions: overexpressed gene aaaD; presence vs absence of AMP; average of biological replicates
# Source text: We generated chemical-genetic interaction profiles for a diverse set of AMPs (Table 1) by screening them against a comprehensive library of gene overexpressions in E. coli[21]. Increasing gene dosage is a widely applied approach to reveal the targets of small-molecule antibiotics[22],[23]. It also informs on the ‘latent resistome’, that is, the collection of genes where a change from native expression level enhances resistance to a particular drug[24]. We applied a sensitive competition assay by monitoring growth of a pooled plasmid library, overexpressing all the E. coli ORFs (Fig. 1a), as we reported earlier. Specifically, E. coli cells carrying the pooled plasmid collection were grown in the presence or absence of one of the 15 AMPs tested, at a sub-inhibitory concentration that increased the doubling time of the whole population by 2-fold. Following 12 generations of growth, the plasmid pool was isolated from each selection and the relative abundance of each plasmid was determined by a deep sequencing readout (see Methods).
# We carried out chemical-genetic profiling to determine the impact of the overexpression of each E. coli ORF on bacterial susceptibility to each of the 15 different AMPs. To this end, we used the complete set of E. coli K-12 Open Reading Frame Archive (ASKA) plasmid library (GFP minus) where each E. coli ORF is cloned into a high copy number expression plasmid (pCA24N-ORFGFP(-)). Prior to screening, the ASKA library was grown in the original host strain E. coli K-12 AG1 in 96-well plates (growth conditions: 37 °C, 280 rpm, LB medium). An equal aliquot of each member of the ASKA library (each well of the 96-well plates) was pooled together and the plasmid DNA (pCA24N-ORF-GFP(-)) was isolated and transformed into E. coli K12 BW25113 strain[51]. To obtain a negative control strain not having any overexpressed gene, the plasmid without a cloned ORF (pCA24N-noORF) was also transformed into the same E. coli strain. Then, on the pooled collection, we applied a previously reported competitive growth assay. Specifically, the pooled overexpression library and the control strain were grown in parallel in MS medium supplemented with 20 µg per ml chloramphenicol and the overexpression was induced by 100 µM isopropyl-ß-D-thiogalactopyranoside (IPTG). After 1 h induction, ~5 × 10^5 bacterial cells from the library were inoculated into each well of a 96-well microtiter plate containing a concentration gradient of an AMP in the MS medium supplemented with 20 µg per ml chloramphenicol and 100 µM IPTG. At the same time, both the library and the control strain with the empty plasmid were grown in the absence of any AMPs. We took special care to grow both of these samples in the exact same conditions as the samples in the presence of AMPs. Bacterial growth was monitored in a microplate reader (Biotek Synergy 2) for 24 h. At the end of the exponential growth phase, we selected those wells in which the doubling time of the cell population was increased by 2-fold. Then, from these wells, cells were split into four equal proportion and each was transferred into 20 mL of MS medium supplemented with the corresponding AMP in four different concentrations in the range that slowed down growth by two-fold in the microtitre plate. […] The rationale for this 2-step process was to maintain competition in exponential phase for 12 generations of growth, efficiently control the growth rate in a reproducible manner and obtain the plasmid pool with standard DNA isolation protocol (innuPREP plasmid mini Kit, Analytik Jena AG) in a yield that is enough for the downstream analysis. The cultures were vigorously shaken along the entire protocol to make sure that the cultures are completely homogeneous and therefore biasing interactions between clones (such as trans-resistance) was minimized. […]
# [2] = test system: E. coli BW25113 overexpression strains (ASKA plasmids); assay: Minimum inhibitory concentration (MIC), serial broth dilution, single-gene overexpression strains vs empty-vector control; assay type: cell-based, Escherichia coli; conditions: broth dilution, MS medium, 100 µM IPTG, 30 °C, 20-24 h, OD600, 3 replicates
# Description: Minimum inhibitory concentrations (MIC) were determined with a standard serial broth dilution technique with a minor modification. Specifically, instead of a two-fold dilution series, smaller AMP concentration steps were used (typically 1.2-fold) for two reasons. […] Second, gene overexpressions caused typically only small changes in the MICs of AMPs and therefore higher resolution was required. The protocol was as follows. From a stock solution of an AMP, 12-steps serial dilution was prepared in fresh MS medium in 96-well microtiter plates. Each AMP was represented in 11 different concentrations (3 wells per AMP concentration per strain). Three wells contained only medium to check the growth in the absence of AMP. After overnight growth in MS medium supplemented with chloramphenicol, bacterial strains were diluted 20-fold into fresh MS medium and grown until the cell density reached OD600 ~1. Cells were induced by 100 µM of IPTG and incubated for 1 h at 30 °C with continuous shaking at 300 rpm. Following incubation, approximately half-million cells were inoculated into the wells of the 96-well microtiter plate with a 96‐pin replicator. We used three independent replicates for each strain and the corresponding control. Two rows in the 96-well plate contained only MS medium in order to obtain the background OD value of the medium. Plates were incubated at 30 °C with continuous shaking at 300 rpm. After 20–24 h of incubation, OD600 values were measured in a microplate reader (Biotek Synergy 2).
# [3] = test system: E. coli gene overexpression; conditions: gene prfA overexpressed; ref 11 (Matsumoto et al. 2017); cited from earlier work
# Source text: Supplement 41467_2019_13618_MOESM1_ESM.docx, table 1: Supplementary Table 1. Collected examples of E. coli gene overexpression from the literature as a confirmation of our chemical-genetic screen results. | column: Overexpression phenotype
# [4] = test system: AMP-evolved E. coli lines; conditions: ref Spohn et al 2019, cited from earlier work
# Source text: Supplement 41467_2019_13618_MOESM13_ESM.xlsx, sheet "Figure 6 and S15" | column: A comprehensive dataset of antimicrobial susceptibility of AMP-adapted lines to antimicrobial peptides (AMPs).
# bacterial membrane = conditions: literature mining; ref superscript numbers in the cell, listed in Supplementary Data 7 sheet References; cited from earlier work
# Source text: Supplement 41467_2019_13618_MOESM10_ESM.xlsx, sheet "AMP details" | column: Pore formation
# [5] = overexpression strain mlaD, MIC of the overexpression strain / MIC of the control strain (wild-type carrying the empty plasmid)
sequence,measurement,setting,value
"GNNRPVYIPQPRPPHPRL [AP, Apidaecin IB, antimicrobial peptide, source Apis mellifera L; cluster C3]",Chemical-genetic score,[1],-0.578 log2 fold change
same,Relative MIC,"[2]; overexpression strain cvpA, MIC of overexpression strain / MIC of empty-plasmid control",0.64
same,Relative MIC,"[2]; overexpression strain gadW, MIC of overexpression strain / MIC of empty-plasmid control",2.5
same,Relative MIC,"[2]; overexpression strain lptB, MIC of overexpression strain / MIC of empty-plasmid control",0.64
same,Relative MIC,[2]; [5],0.6
same,"Overexpression phenotype, Literature",[3],Resistance^11
"GWGSFFKKAAHVGKHVGKAALTHYL [PLEU, Pleurocidin, antimicrobial peptide from Pleuronectes americanus; cluster C2]",Relative MIC,[2]; [5],1
same,Relative MIC,"[2]; overexpression strain nikB, MIC of overexpression strain / MIC of empty-plasmid control",0.8
same,Relative change in MIC (MIC of the AMP-adpated line / MIC of the ancestral strain),[4]; AMP-adapted line BAC5_3,1
same,Relative change in MIC (MIC of the AMP-adpated line / MIC of the ancestral strain),[4]; AMP-adapted line BAC5_5,0.8
same,Relative change in MIC (MIC of the AMP-adpated line / MIC of the ancestral strain),[4]; AMP-adapted line BAC5_7,1
same,Relative change in MIC (MIC of the AMP-adpated line / MIC of the ancestral strain),[4]; AMP-adapted line BAC5_10,1
same,Relative change in MIC (MIC of the AMP-adpated line / MIC of the ancestral strain),[4]; AMP-adapted line CAP18_2,2.1
same,Relative change in MIC (MIC of the AMP-adpated line / MIC of the ancestral strain),[4]; AMP-adapted line CAP18_5,2.5
same,Relative change in MIC (MIC of the AMP-adpated line / MIC of the ancestral strain),[4]; AMP-adapted line CAP18_6,2.3
same,Relative change in MIC (MIC of the AMP-adpated line / MIC of the ancestral strain),[4]; AMP-adapted line CAP18_8,1.7
same,Relative change in MIC (MIC of the AMP-adpated line / MIC of the ancestral strain),[4]; AMP-adapted line CAP18_10,4.3
same,Relative change in MIC (MIC of the AMP-adpated line / MIC of the ancestral strain),[4]; AMP-adapted line HBD3_3,1.3
same,Relative change in MIC (MIC of the AMP-adpated line / MIC of the ancestral strain),[4]; AMP-adapted line HBD3_6,1.7
same,Relative change in MIC (MIC of the AMP-adpated line / MIC of the ancestral strain),[4]; AMP-adapted line HBD3_8,1.7
same,Relative change in MIC (MIC of the AMP-adpated line / MIC of the ancestral strain),[4]; AMP-adapted line HBD3_10,1.3
same,Relative change in MIC (MIC of the AMP-adpated line / MIC of the ancestral strain),[4]; AMP-adapted line LL37_1,1.4
same,Relative change in MIC (MIC of the AMP-adpated line / MIC of the ancestral strain),[4]; AMP-adapted line LL37_3,1.2
same,Relative change in MIC (MIC of the AMP-adpated line / MIC of the ancestral strain),[4]; AMP-adapted line LL37_6,1.4
same,Relative change in MIC (MIC of the AMP-adpated line / MIC of the ancestral strain),[4]; AMP-adapted line LL37_7,64
same,Relative change in MIC (MIC of the AMP-adpated line / MIC of the ancestral strain),[4]; AMP-adapted line LL37_10,1.6
same,Relative change in MIC (MIC of the AMP-adpated line / MIC of the ancestral strain),[4]; AMP-adapted line PEX_1,2.3
same,Relative change in MIC (MIC of the AMP-adpated line / MIC of the ancestral strain),[4]; AMP-adapted line PEX_4,2.3
same,Relative change in MIC (MIC of the AMP-adpated line / MIC of the ancestral strain),[4]; AMP-adapted line PEX_5,1.4
same,Relative change in MIC (MIC of the AMP-adpated line / MIC of the ancestral strain),[4]; AMP-adapted line PEX_6,2.8
same,Relative change in MIC (MIC of the AMP-adpated line / MIC of the ancestral strain),[4]; AMP-adapted line PEX_7,1.7
same,Relative change in MIC (MIC of the AMP-adpated line / MIC of the ancestral strain),[4]; AMP-adapted line PR39_1,1.4
same,Relative change in MIC (MIC of the AMP-adpated line / MIC of the ancestral strain),[4]; AMP-adapted line PR39_2,1.1
same,Relative change in MIC (MIC of the AMP-adpated line / MIC of the ancestral strain),[4]; AMP-adapted line PR39_5,1
same,Relative change in MIC (MIC of the AMP-adpated line / MIC of the ancestral strain),[4]; AMP-adapted line PR39_7,0.9
same,Relative change in MIC (MIC of the AMP-adpated line / MIC of the ancestral strain),[4]; AMP-adapted line PR39_10,0.9
same,Relative change in MIC (MIC of the AMP-adpated line / MIC of the ancestral strain),[4]; AMP-adapted line PROA_2,1.6
same,Relative change in MIC (MIC of the AMP-adpated line / MIC of the ancestral strain),[4]; AMP-adapted line PROA_3,0.9
same,Relative change in MIC (MIC of the AMP-adpated line / MIC of the ancestral strain),[4]; AMP-adapted line PROA_7,1.1
same,Relative change in MIC (MIC of the AMP-adpated line / MIC of the ancestral strain),[4]; AMP-adapted line PROA_8,1.2
same,Relative change in MIC (MIC of the AMP-adpated line / MIC of the ancestral strain),[4]; AMP-adapted line PROA_9,0.9
same,Relative change in MIC (MIC of the AMP-adpated line / MIC of the ancestral strain),[4]; AMP-adapted line PXB_2,0.9
same,Relative change in MIC (MIC of the AMP-adpated line / MIC of the ancestral strain),[4]; AMP-adapted line PXB_5,1.6
same,Relative change in MIC (MIC of the AMP-adpated line / MIC of the ancestral strain),[4]; AMP-adapted line PXB_6,4.8
same,Relative change in MIC (MIC of the AMP-adpated line / MIC of the ancestral strain),[4]; AMP-adapted line PXB_8,2.1
same,Relative change in MIC (MIC of the AMP-adpated line / MIC of the ancestral strain),[4]; AMP-adapted line PXB_10,6.3
same,Pore formation (whether AMP makes pores in the bacterial membrane),bacterial membrane,Yes18
